Laboratory results taken from ChEMBL document CHEMBL1156661, “Myrtucommulones F-I, phloroglucinols with thyrotropin-releasing hormone receptor-2 binding affinity from the seeds of Corymbia scabrida” (J Nat Prod, 2008).

test: Displacement of [H3]3-methylhistidylTRH from rat recombinant TRH2 receptor expressed in […] cells; assay type: cell-based

Structure (SMILES)	IC50
CC(C)C(=O)c1c(O)c([C@H](C2=C(O)C(C)(C)C(=O)C(C)(C)C2=O)C(C)C)c(O)c([C@H](C2=C(O)C(C)(C)C(=O)C(C)(C)C2=O)C(C)C)c1O [MYRTUCOMMULONE A]	39 µM
CC(C)C(=O)c1c(O)c2c(c3c1O[C@@]1(O)[C@@H](C(O)C(C)(C)C(=O)C1(C)C)[C@@H]3C(C)C)OC1=C(C(=O)C(C)(C)C(=O)C1(C)C)[C@@H]2C(C)C (stereo partly specified) [MYRTUCOMMULONE D]	11 µM
CCCCCC(=O)c1c(O)c([C@H](C2=C(O)C(C)(C)C(=O)C(C)(C)C2=O)C(C)C)c(O)c([C@H](C2=C(O)C(C)(C)C(=O)C(C)(C)C2=O)C(C)C)c1O [MYRTUCOMMULONE F]	16 µM
CCCCCC(=O)c1c(O)c2c(c3c1O[C@@]1(O)[C@@H](C(O)C(C)(C)C(=O)C1(C)C)[C@@H]3C(C)C)OC1=C(C(=O)C(C)(C)C(=O)C1(C)C)[C@@H]2C(C)C (stereo partly specified) [MYRTUCOMMULONE G]	24 µM
CCCCCC(=O)c1c(O)c([C@@H](CC(C)C)C2=C(O)C(C)(C)C(=O)C(C)(C)C2=O)c(O)c([C@H](C2=C(O)C(C)(C)C(=O)C(C)(C)C2=O)C(C)C)c1O [MYRTUCOMMULONE H]	31 µM
CCCCCC(=O)c1c(O)c2c(c3c1O[C@@]1(O)[C@@H](C(O)C(C)(C)C(=O)C1(C)C)[C@@H]3C(C)C)OC1=C(C(=O)C(C)(C)C(=O)C1(C)C)[C@@H]2CC(C)C (stereo partly specified) [MYRTUCOMMULONE I]	16 µM
